The structures appear in SMILES notation.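 Step 1: Grow cells in 96-well plates. Step 2: Expose to compound for 48 hours at 5 concentrations. Step 3: Interpolate endpoints linearly; if unreached, use highest concentration. Definition used: TGI = concentration required for complete inhibition of growth.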

This is an account of results in PubChem BioAssay (NCI).

Some test systems named below: LOX IMVI melanoma; MDA-N; M14 melanoma; MDA-MB-435; UO-31 renal; SF-539 CNS; SF-295 CNS; KM12 colon; OVCAR-3 ovarian; SK-MEL-28 melanoma.
What all share (experiment): NCI tumour cell line growth inhibition, 48 h

On to `Cc1n[nH]c(=O)c2c3c([nH]c12)-c1ccccc1C3`, for which the TGI in the assay on LOX IMVI melanoma, in the assay on MDA-N, in the assay with M14 melanoma, in the assay with MDA-MB-435, with UO-31 renal and in the assay on SF-539 CNS was over 100 µM in each case. Besides, the TGI with SF-295 CNS, with KM12 colon, in the assay on OVCAR-3 ovarian and in the assay with SK-MEL-28 melanoma was over 100 µM in each case.

`COc1cc2c(cc1C)NC(=O)/C2=C/c1c(Cl)[nH]c2ccccc12`: the TGI in the assay with LOX IMVI melanoma came to 17.9 µM; in the assay with MDA-N it was 3.82 µM; with M14 melanoma it was 13.3 µM; with MDA-MB-435, 4.13 µM; in the assay with UO-31 renal it was 25.8 µM; in the assay with SF-539 CNS it was 4.15 µM. Moreover, the TGI came to 5.52 µM in the assay with SF-295 CNS, 16.9 µM with KM12 colon, 6.34 µM in the assay on OVCAR-3 ovarian and 20.8 µM in the assay with SK-MEL-28 melanoma.

Take `Cc1[nH]c2c(C)c3c([nH]c4ccc(Cl)cc43)c(C)c2c(=O)c1C`: the TGI is 15.7 µM in the assay with LOX IMVI melanoma; 32.6 µM in the assay on MDA-N; over 100 µM in the assay with M14 melanoma; over 53.5 µM in the assay on MDA-MB-435; 38.9 µM in the assay with UO-31 renal; 36 µM in the assay on SF-539 CNS. Also, the TGI is 36.2 µM in the assay on SF-295 CNS, 77.2 µM with KM12 colon, 18.9 µM in the assay with OVCAR-3 ovarian and over 100 µM with SK-MEL-28 melanoma.

`c1cc(CSP234N5CCN2CCN3CCN4CC5)cc(CSP234N5CCN2CCN3CCN4CC5)c1`: the TGI in the assay on LOX IMVI melanoma is 35.1 µM; in the assay with MDA-N, 79.9 µM; in the assay on M14 melanoma it was 49 µM; with MDA-MB-435 it was 59.3 µM; with UO-31 renal it was 39.3 µM; in the assay on SF-539 CNS it was 55.5 µM. Moreover, the TGI in the assay with SF-295 CNS is 46.2 µM; in the assay on KM12 colon, 47.1 µM; in the assay on OVCAR-3 ovarian, over 100 µM; in the assay on SK-MEL-28 melanoma, 44.6 µM.

For `CCOc1c2c(cc3c1C(=O)c1c(OC)cccc1C3=O)C=C(OC)CC2`, the TGI in the assay on LOX IMVI melanoma was over 25 µM; with MDA-N it was 19.9 µM; in the assay with M14 melanoma, over 25 µM; in the assay with MDA-MB-435, over 25 µM; with UO-31 renal it was over 25 µM; in the assay with SF-539 CNS it was over 25 µM. Moreover, the TGI with SF-295 CNS, with KM12 colon, with OVCAR-3 ovarian and in the assay on SK-MEL-28 melanoma was over 25 µM throughout.

As for `CN1N=C(c2ccncc2)OC1c1ccc(C(F)(F)F)cc1` (stereo not given), the TGI in the assay on LOX IMVI melanoma, in the assay on MDA-N, in the assay on M14 melanoma, in the assay on MDA-MB-435, in the assay on UO-31 renal and with SF-539 CNS was over 100 µM each time. Besides, the TGI with SF-295 CNS, in the assay on KM12 colon, in the assay with OVCAR-3 ovarian and with SK-MEL-28 melanoma was over 100 µM in each case.

On to `CC1(C)OCC(/C=C\C(O)CC2(C)OCCO2)CO1` (stereo not given), for which the TGI with LOX IMVI melanoma, in the assay on MDA-N, with M14 melanoma, in the assay on MDA-MB-435, with UO-31 renal and with SF-539 CNS was over 100 µM in each case. The TGI in the assay on SF-295 CNS, in the assay on KM12 colon, with OVCAR-3 ovarian and with SK-MEL-28 melanoma was over 100 µM throughout.

Regarding `COc1ccc(Cl)cc1NC(=O)O/N=C(\Cl)C(C)C`, the TGI in the assay on LOX IMVI melanoma came out at 5.06 µM; with MDA-N it was 26.2 µM; with M14 melanoma, 13 µM; with MDA-MB-435, 47.6 µM; in the assay on UO-31 renal, 28.5 µM; in the assay on SF-539 CNS, 29.4 µM. Also, the TGI in the assay with SF-295 CNS amounted to 33.9 µM; with KM12 colon it was 35.5 µM; in the assay on OVCAR-3 ovarian it was 18.7 µM; in the assay on SK-MEL-28 melanoma, 42.9 µM.

On to `C=CCCCCCCCCCOC1C=CC(O)C(CO)O1` (stereo not given), for which the TGI is over 100 µM in the assay on LOX IMVI melanoma; 82.1 µM in the assay on MDA-N; 36 µM in the assay with M14 melanoma; over 100 µM in the assay on MDA-MB-435; over 100 µM in the assay on UO-31 renal; over 100 µM in the assay on SF-539 CNS. Moreover, the TGI was over 100 µM in the assay on SF-295 CNS, 85.1 µM in the assay with KM12 colon, over 100 µM in the assay on OVCAR-3 ovarian and over 100 µM in the assay on SK-MEL-28 melanoma.

As to `C[N+]1(CC[N+]2(C)CCCC2c2cccnc2)CCCC1c1cccnc1` (stereo not given), the TGI in the assay on LOX IMVI melanoma, with MDA-N, in the assay on M14 melanoma, in the assay with MDA-MB-435, in the assay on UO-31 renal and in the assay with SF-539 CNS was over 100 µM each time. The TGI in the assay on SF-295 CNS, in the assay on KM12 colon, in the assay with OVCAR-3 ovarian and in the assay on SK-MEL-28 melanoma was over 100 µM throughout.

On to `COc1ccc(/C=N/n2c(-c3ccccc3)n[nH]c2=O)c(OC)c1`, for which the TGI was over 100 µM in the assay on LOX IMVI melanoma; over 100 µM in the assay on MDA-N; over 100 µM in the assay on M14 melanoma; over 100 µM in the assay on MDA-MB-435; over 70 µM with UO-31 renal; over 84.9 µM with SF-539 CNS. Further, the TGI in the assay on SF-295 CNS, with KM12 colon, in the assay on OVCAR-3 ovarian and in the assay on SK-MEL-28 melanoma was over 100 µM each time.
